The test system of one assay is MB cell lines. Kind of assay: AZA treatment, miR-199b-5p expression by real-time PCR. Type of assay: cell-based. The settings on record: two cell lines (Med8 and UV238) of a panel of five; 5 μM, 72 h. The procedure: Five MB cell lines (d283, Daoy, med8a, ons76, uw228) were grown in DMEM supplemented with 10% FBS and antibiotics. Upon reaching 85% confluence, the media was spiked with 5-aza-deoxycytidine (AZA) (Sigma) to a final concentration of 5 μM. Over 72 h the media was replaced daily with fresh AZA-enhanced medium. RNA was extracted using a standard phenol (TRIzol)-chloroform protocol.

The next assay deals with HES1. Nature of the assay: Western blotting of HES1 protein. Type of assay: cell-based, human. As to conditions: Daoy cell line, DAPT 12 h. On the procedure:
Thirty μg cytosolic or nuclear lysates were loaded onto 12% polyacrilamide gels, and blotted onto polyvinylidene difluoride membranes (PVDF; BioRad, Milan, Italy). The membranes were then incubated with anti-HES1 (kind gift of Dr. Tetsuo Sudo TORAY Industries, Tebiro Kamakura, Japan), a polyclonal rabbit antibody (1:500), an anti-GSK3-β (B&D Bioscience) monoclonal antibody (1:2500), an anti-c-Myc polyclonal rabbit antibody (1:200) (Santa Cruz Biotechnology, Santa Cruz, Calif., USA), an anti-GABRA6 antibody (Santa Cruz Biotechnology, Santa Cruz, USA) (1:200), an anti-MATH3 antibody (Santa Cruz Biotechnology, Santa Cruz, USA) (1:200) and an anti-cyclin D1 (1:200) polyclonal rabbit antibody (Cell Signaling). An anti-β-actin antibody (1:1.000) (Sigma) was used as the control for equal loading of cytosolic lysates and a polyclonal anti-β-laminin antibody (1:50) (Santa Cruz Biotechnology, Santa Cruz, Calif., USA) for equal loading of nuclear lysates.

Assay [1] concerns Daoy cell line. Kind of assay: DAPT treatment, miR-199b expression by real-time PCR. Type of assay: cell-based, human. As to conditions: 10 μM DAPT, 12 h, relative to time 0. The procedure:
The reverse transcriptase (RT) reactions contained 40 ng RNA sample, 50 nM stem-loop RT primer, 1×RT buffer (P/N:4319981, Applied Biosystems), 0.25 mM each of dNTPs, […] MultiScribe RT (P/N: 4319983, Applied Biosystems) and […] RNase inhibitor (P/N: N8080119; Applied Biosystems). The 15 μl reactions were incubated in an Applied Biosystems 9700 Thermocycler for 30 min at 16° C., 30 min at 42° C., 5 min at 85° C., and then held at 4° C.
Real-time PCR was performed using a standard TaqMan PCR kit protocol on an Applied Biosystems 7900HT Sequence Detection System. The 20 μl PCR mix included 2 μl RT product, 10 μl TaqMan Universal PCR Master Mix (Applied Biosystems), […] TaqMan probe. The reactions were incubated in a 96-well plate at 95° C. for 10 min, followed by 60 cycles of 95° C. for 15 s and 60° C. for 1 min.
(§1) N—[N-(3,5-difluorophenacetyl)-l-alanyl]-S-phenylglycine t-butylester (DAPT (Sigma-Aldrich) treatment of the Daoy cells was performed as follows: the cells were plated and allowed to grow overnight in medium containing 10% FBS. The next morning, the medium was replaced with medium containing 10 μM DAPT and replaced each 4 h with this medium. The expression assays was performed after 0, 6, 12, 24 h of treatment […], using control experiments including the corresponding volume of DMSO as vehicle.
On the technique in general: In qPCR the cycle at which signal appears reflects the starting amount.

The test system of assay [2] is Daoy cell line. Nature of the assay: DAPT treatment, stem-cell gene expression by real-time PCR. Type of assay: cell-based, human. The settings on record: Daoy + DAPT 12 h. On the procedure: Total RNA was extracted from the cell lines using the Trizol reagent (Invitrogen). Synthesis of cDNA from total RNA (4 μg) was performed using a Super Script II First Strand Kit (Invitrogen). Real-time quantitative PCR was performed using standard protocols with an Applied Biosystems ABI PRISM 7900HT Sequence Detection system. To calculate the relative gene expression of the miR-199b-5p precursor, the relative amounts of each pre-miRNA were normalized to U6 miRNA; the other genes were normalized using the β-actin gene. Real-time PCR primers for each gene were designed using Primer Express software version 2.0 (Applied Biosystems). The primer sequences are available upon request.
as §1

The text below walks through data of US9017938B2, “Use of microrna-199b-5p in medical and diagnostic field” (Advanced Accelerator Applications, priority 2009, dated 2015).

Structures are written as SMILES.

On to `Nc1ncn([C@H]2C[C@H](O)[C@@H](CO)O2)c(=O)n1` [5-aza-deoxycytidine], for which, in the assay with MB cell lines, the miR-199b-5p expression entry is “significant up-regulation”.

For the compound `C[C@H](NC(=O)Cc1cc(F)cc(F)c1)C(=O)N[C@H](C(=O)OC(C)(C)C)c1ccccc1` [DAPT, N—[N-(3,5-difluorophenacetyl)-l-alanyl]-S-phenylglycine t-butylester], the “HES1 protein (Western blot)” value in the assay on HES1 is listed as “down-regulation”. Moreover, in the assay on Daoy cell line [1], the “increase of miR-199b-5p level” value was 9 fold. Further, in the assay with Daoy cell line [2], the “CD 133 expression 2^-DCt” value was determined as 0.001237, the “HMGA1 expression 2^-DCt” value was determined as 0.004879, the “HMGB3 expression 2^-DCt” value is listed as 0.005577 and the “ILF3 expression 2^-DCt” value is given as 0.04252. In the assay on Daoy cell line [2], the “KLF5 expression 2^-DCt” value was found to be 0.02368, the “MYBL2 expression 2^-DCt” value was 0.003932, the “Nanog expression 2^-DCt” value worked out at 0.0004488 and the “Oct4 expression 2^-DCt” value is on record as 0.0007941. In the assay with Daoy cell line [2], the “PDGFR-A expression 2^-DCt” value came out at 0.0000015, the “PDGFR-B expression 2^-DCt” value is on record as 0.0000606, the “SPARC expression 2^-DCt” value is reported as 0.07977 and the “TCF7L1 expression 2^-DCt” value came out at 0.0001026. In the assay on Daoy cell line [2], the “TEAD4 expression 2^-DCt” value was 0.005176, the “ZIC1 expression 2^-DCt” value is 0.0002784 and the “c-Myc expression 2^-DCt” value turned out to be 0.05427.
